According to publication PMC3763849 (ACS medicinal chemistry letters, 2013):
“Also recorded” adds a separate entry of the source.

Tests used:
HIV-1LAI = assay: HIV-1 susceptibility assay in human PBM cells infected with HIV-1LAI; type: cell-based; conditions: for fold greater potency versus HIV-1 compared to parent nucleoside: phosphoramidate versus parent nucleoside
HBV = assay: Antiviral activity against HBV in the HepAD38 cell system; type: cell-based
[1] = test system: five tested cell lines (PBM, HepG2, Huh7, Vero, CEM); assay: Cytotoxicity across the five tested cell systems; type: cell-based
PBM cells = assay: Cellular pharmacology in PBM cells: intracellular nucleoside triphosphate levels; type: in vitro ADME, human

Structure (SMILES) | fold greater potency versus HIV-1 compared to parent nucleoside (HIV-1LAI) | formation of dioxolane-A triphosphate (PBM cells) | other results
CCOC(=O)CCc1ccccc1OP(=O)(N[C@@H](C)C(=O)OCC)OC[C@@H]1OC[C@H](n2cnc3c(OC)ncnc32)O1 (stereo partly drawn) [Compound 20] | up to 3,600 fold | – | –
OC[C@@H]1OC[C@H](n2cnc3c(NC4CC4)ncnc32)O1 [Compound 8] | – | – | activity versus HBV (HBV): essentially not active; cytotoxicity in the five tested cell lines [1]: did not display any cytotoxicity; activity versus HIV (HIV-1LAI): essentially not active
CCOC(=O)CCc1ccccc1OP(=O)(N[C@@H](C)C(=O)OCC)OC[C@@H]1OC[C@H](n2cnc3c(N)ncnc32)O1 (stereo partly drawn) [Compound 18] | up to 3,600 fold | found to form the dioxolane-A triphosphate; also recorded: highest levels of dioxolane-A triphosphate | –
CCOC(=O)[C@H](C)NP(=O)(OC[C@@H]1OC[C@H](n2cnc3c(OC)ncnc32)O1)Oc1ccccc1 (stereo partly drawn) [Compound 19] | up to 3,600 fold | – | –
CCOC(=O)[C@H](C)NP(=O)(OC[C@@H]1OC[C@H](n2cnc3c(NC4CC4)ncnc32)O1)Oc1ccccc1 (stereo partly drawn) [Compound 22] | up to 3,600 fold | found to form the dioxolane-A triphosphate | cytotoxicity in the five tested cell lines [1]: no observed cytotoxicity
Nc1ncnc2c1ncn2[C@H]1CO[C@@H](CO)O1 [Compound 6, (−)-β-D-(2R,4R)-6-amino dioxolane adenosine] | – | found to form the dioxolane-A triphosphate | –
CCOC(=O)[C@H](C)NP(=O)(OC[C@@H]1OC[C@H](n2cnc3c(N)ncnc32)O1)Oc1ccccc1 (stereo partly drawn) [Compound 17] | up to 3,600 fold | found to form the dioxolane-A triphosphate; also recorded: highest levels of dioxolane-A triphosphate | –
CCOC(=O)CCc1ccccc1OP(=O)(N[C@@H](C)C(=O)OCC)OC[C@@H]1OC[C@H](n2cnc3c(NC4CC4)ncnc32)O1 (stereo partly drawn) [Compound 23] | – | found to form the dioxolane-A triphosphate | –
Nc1nc(N)c2ncn([C@H]3CO[C@@H](CO)O3)c2n1 [DAPD, Amdoxovir, reference compound] | – | – | activity versus HBV (HBV): low micromolar
